Measurements reported in the supplement of paper PMC11208160.

Experiment: recombinant UMI read abundance after kanamycin selection (control-corrected) (log10(CPM+1)); higher = more efficient recombination; extreme values may be limits of the assay; sequences stand for … in AGTGCAGAGAAAATCGGCCAGTTTTCTCTGCCTGCAGTCCGCATGCCGTGGGACCCCTTGGGTTCTAACCTGTTGCCTAGATTTATGCAGCGGACTGCCTTTCTCCCAAAGTGATAAACCGG…AGGTTGGTTTCACT; site = the 11-nt donor
Procedure, shortened: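 For the IS621 bridge recombinase, a pooled Escherichia coli screen tested donor and donor-binding-loop pairs. Cells received the pair library together with a target plasmid encoding a fixed target and T7-inducible recombinase, then went onto IPTG (0.07 mM) plus kanamycin or unselected plates in duplicate. After PCR across the donor–target junction and sequencing, recombinant UMI counts were normalized to CPM, averaged, and scaled by control-derived factors. Each value is given as log10(CPM+1).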
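Note: IS621 bridge recombinase in Escherichia coli cells against a fixed T5 target plasmid.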

Sequence | recombinant UMI read abundance (log10)
GAAGCAGCATGGACCGGTTTTCCCGGTAATCCGTATTTGCT (site GAAGCAGCTAG) | 2.25
GAAGCAGCATGGACCGGTTTTCCCGGTAATCCGTATTTGCT (site TAAGCAGCTAG) | 2.01
GAAGCGCCATGGACCGGTTTTCCCGGTAATCCGTATTTGTG (site AAAGCGCCTCA) | 0.00334
GAAGCGCCATGGACCGGTTTTCCCGGTAATCCGTATTTGTG (site CAAGCGCCTCA) | 0.00406
GAAGCGCCATGGACCGGTTTTCCCGGTAATCCGTATTTGTG (site GAAGCGCCTCA) | 0.139
GAAGCGCCATGGACCGGTTTTCCCGGTAATCCGTATTTGTG (site TAAGCGCCTCA) | 0.00772
GAAGGGCCATGGACCGGTTTTCCCGGTAATCCGTATTTGTG (site GAAGGGCCTCA) | 0.0149
GAAGGTACATGGACCGGTTTTCCCGGTAATCCGTATTTGAC (site GAAGGTACTGT) | 2.28
GAAGGTACATGGACCGGTTTTCCCGGTAATCCGTATTTGAC (site GCAGGTACTGT) | 0
GAAGGTACATGGACCGGTTTTCCCGGTAATCCGTATTTGAC (site GGAGGTACTGT) | 0
GAAGGTACATGGACCGGTTTTCCCGGTAATCCGTATTTGAC (site GTAGGTACTGT) | 2.16
GAAGTCGCATGGACCGGTTTTCCCGGTAATCCGTATTTGGT (site GAAGTCGCTAC) | 1.34
GAAGTGGCATGGACCGGTTTTCCCGGTAATCCGTATTTGGT (site GAAGTGGCTAC) | 0.489
GAAGTGGCATGGACCGGTTTTCCCGGTAATCCGTATTTGGT (site GCAGTGGCTAC) | 0.177
GAAGTGGCATGGACCGGTTTTCCCGGTAATCCGTATTTGGT (site GGAGTGGCTAC) | 0.113
GAAGTGGCATGGACCGGTTTTCCCGGTAATCCGTATTTGGT (site GTAGTGGCTAC) | 0.882
GAAGTGTCATGGACCGGTTTTCCCGGTAATCCGTATTTGAA (site GAAGTGTCTTT) | 3.13
GAATAGCCATGGACCGGTTTTCCCGGTAATCCGTATTTGCA (site GAATAGCCTTG) | 0.97
GAATAGCCATGGACCGGTTTTCCCGGTAATCCGTATTTGCA (site GAATCGCCTTG) | 0
GAATAGCCATGGACCGGTTTTCCCGGTAATCCGTATTTGCA (site GAATGGCCTTG) | 0.0428
GAATAGCCATGGACCGGTTTTCCCGGTAATCCGTATTTGCA (site GAATTGCCTTG) | 0
GAATGAGCATGGACCGGTTTTCCCGGTAATCCGTATTTGGG (site AAATGAGCTCC) | 0.0126
GAATGAGCATGGACCGGTTTTCCCGGTAATCCGTATTTGGG (site CAATGAGCTCC) | 0.0211
GAATGAGCATGGACCGGTTTTCCCGGTAATCCGTATTTGGG (site GAATGAGCTCC) | 0.261
GAATGAGCATGGACCGGTTTTCCCGGTAATCCGTATTTGGG (site TAATGAGCTCC) | 0.317

Sequence | recombinant UMI read abundance (log10)
GAATGGCCATGGACCGGTTTTCCCGGTAATCCGTATTTGCC (site GAATGGCCTAG) | 0
GAATGGCCATGGACCGGTTTTCCCGGTAATCCGTATTTGCC (site GAATGGCCTCG) | 0.0106
GAATGGCCATGGACCGGTTTTCCCGGTAATCCGTATTTGCC (site GAATGGCCTGG) | 0
GAATGGCCATGGACCGGTTTTCCCGGTAATCCGTATTTGCC (site GAATGGCCTTG) | 0
GAATGGCCATGGACCGGTTTTCCCGGTAATCCGTATTTGCG (site GAATGGCCTAG) | 0
GAATGGCCATGGACCGGTTTTCCCGGTAATCCGTATTTGCG (site GAATGGCCTCG) | 0.0153
GAATGGCCATGGACCGGTTTTCCCGGTAATCCGTATTTGCG (site GAATGGCCTGG) | 0
GAATGGCCATGGACCGGTTTTCCCGGTAATCCGTATTTGCG (site GAATGGCCTTG) | 0
GAATGGCCATGGACCGGTTTTCCCGGTAATCCGTATTTGGA (site GAATGGCCTTA) | 0
GAATGGCCATGGACCGGTTTTCCCGGTAATCCGTATTTGGA (site GAATGGCCTTC) | 0.00798
GAATGGCCATGGACCGGTTTTCCCGGTAATCCGTATTTGGA (site GAATGGCCTTG) | 0
GAATGGCCATGGACCGGTTTTCCCGGTAATCCGTATTTGGA (site GAATGGCCTTT) | 0.0129
GAATGGCCATGGACCGGTTTTCCCGGTAATCCGTATTTGTA (site GAATGGCCTTA) | 0.142
GAATGGCCATGGACCGGTTTTCCCGGTAATCCGTATTTGTA (site GAATGGCCTTC) | 0.0097
GAATGGCCATGGACCGGTTTTCCCGGTAATCCGTATTTGTA (site GAATGGCCTTG) | 0.00609
GAATGGCCATGGACCGGTTTTCCCGGTAATCCGTATTTGTA (site GAATGGCCTTT) | 0.0207
GACAAACCATGGACCGGTTTTCCCGGTAATCCGTATTTGCT (site GACAAACCTAA) | 0.00711
GACAAACCATGGACCGGTTTTCCCGGTAATCCGTATTTGCT (site GACAAACCTAC) | 0
GACAAACCATGGACCGGTTTTCCCGGTAATCCGTATTTGCT (site GACAAACCTAG) | 0
GACAAACCATGGACCGGTTTTCCCGGTAATCCGTATTTGCT (site GACAAACCTAT) | 0
GACAAACCATGGACCGGTTTTCCCGGTAATCCGTATTTGGA (site GACAAACCTAC) | 0.0269
GACAAACCATGGACCGGTTTTCCCGGTAATCCGTATTTGGA (site GACAAACCTCC) | 0
GACAAACCATGGACCGGTTTTCCCGGTAATCCGTATTTGGA (site GACAAACCTGC) | 0
GACAAACCATGGACCGGTTTTCCCGGTAATCCGTATTTGGA (site GACAAACCTTC) | 0
GACAAACCATGGACCGGTTTTCCCGGTAATCCGTATTTGTT (site GACAAACCTAA) | 0

Sequence | recombinant UMI read abundance (log10)
GACAAACCATGGACCGGTTTTCCCGGTAATCCGTATTTGTT (site GACAAACCTAC) | 0
GACAAACCATGGACCGGTTTTCCCGGTAATCCGTATTTGTT (site GACAAACCTAG) | 0
GACAAACCATGGACCGGTTTTCCCGGTAATCCGTATTTGTT (site GACAAACCTAT) | 0
GACACACCATGGACCGGTTTTCCCGGTAATCCGTATTTGGT (site GACAAACCTAC) | 0
GACACACCATGGACCGGTTTTCCCGGTAATCCGTATTTGGT (site GACACACCTAC) | 0.00264
GACACACCATGGACCGGTTTTCCCGGTAATCCGTATTTGGT (site GACAGACCTAC) | 0.00253
GACACACCATGGACCGGTTTTCCCGGTAATCCGTATTTGGT (site GACATACCTAC) | 0.00315
GACCACCCATGGACCGGTTTTCCCGGTAATCCGTATTTGTT (site GACCACCCTAA) | 0.0158
GACCACCCATGGACCGGTTTTCCCGGTAATCCGTATTTGTT (site GCCCACCCTAA) | 0.0164
GACCACCCATGGACCGGTTTTCCCGGTAATCCGTATTTGTT (site GGCCACCCTAA) | 0.00672
GACCACCCATGGACCGGTTTTCCCGGTAATCCGTATTTGTT (site GTCCACCCTAA) | 0.0482
GACCCATCATGGACCGGTTTTCCCGGTAATCCGTATTTGCC (site GACCCATCTGG) | 1.64
GACCCGACATGGACCGGTTTTCCCGGTAATCCGTATTTGGT (site GACCCGACTAC) | 0.319
GACCCTACATGGACCGGTTTTCCCGGTAATCCGTATTTGAA (site GACCCTACTTT) | 0.324
GACCGACCATGGACCGGTTTTCCCGGTAATCCGTATTTGCG (site GACCGACCTCG) | 0.00858
GACCGTCCATGGACCGGTTTTCCCGGTAATCCGTATTTGAC (site GACCGTCCTGT) | 0
GACCTATCATGGACCGGTTTTCCCGGTAATCCGTATTTGGA (site GACCTATCTTC) | 0.981
GACCTTCCATGGACCGGTTTTCCCGGTAATCCGTATTTGGT (site GACCTTCCTAC) | 0.0209
GACGCCGCATGGACCGGTTTTCCCGGTAATCCGTATTTGGT (site GACGCCGCTAC) | 0.736
GACGTAACATGGACCGGTTTTCCCGGTAATCCGTATTTGGC (site GACGTAACTGC) | 1.72
GACTAGCCATGGACCGGTTTTCCCGGTAATCCGTATTTGAA (site GACTAGCCTTT) | 0.0158
GACTCATCATGGACCGGTTTTCCCGGTAATCCGTATTTGCC (site GACTCATCTGG) | 2.65
GACTTGGCATGGACCGGTTTTCCCGGTAATCCGTATTTGAA (site GACTTGGCTTT) | 0.93
GAGAAGCCATGGACCGGTTTTCCCGGTAATCCGTATTTGGG (site GAGAAGCCTCC) | 0.0155
GAGAAGCCATGGACCGGTTTTCCCGGTAATCCGTATTTGGG (site GCGAAGCCTCC) | 0.0122
